Data from US8921362B2, “6,7-dialkoxy quinazoline derivatives and methods of treating drug resistant and other tumors” (Natco Pharma Limited, priority 2008, dated 2014).

Columns and labels:
Experiment in all cases: KinomeScan
Assay type in all cases: binding
Details in all cases: read-out: % Ctrl @ 10000 nM
[1] = target: T1, FLT1 (Homo sapiens, UniProt P17948)
T1 construct: host or cells: T7 phage in E. coli host derived from BL21
Protocol: (§1) Kinase assays: Assays were performed as described in Fabian et al. (2005) Nature Biotechnology, vol. 23, p. 329. Kinase-tagged T7 phage strains were grown in parallel in 24 or 96-well blocks in an E. coli host derived from the BL21 strain. E. coli were grown to log-phase and infected with T7 phage from a frozen stock (multiplicity of infection ˜0.1) and incubated with shaking at 32° C. until lysis (−90 minutes). The lysates were centrifuged and filtered to remove cell debris. […] The liganded beads were blocked with excess biotin and washed with blocking buffer (SeaBlock (Pierce), 1% BSA, 0.05% Tween 20, 1 mM DTT) to remove unbound ligand and to reduce non-specific phage binding.
(§2) Test compounds were prepared as 40× stocks in DMSO and diluted into the aqueous environment. 2.5% DMSO was added to control assays lacking a test compound. All reactions were performed in polystyrene 96-well plates that had been pretreated with blocking buffer in a final volume of 0.04 ml. […] The phage titer in the eluates was measured by quantitative PCR.

[2] = target: T2, STK33 (Homo sapiens, UniProt Q9BYT3)
T2 construct: host or cells: T7 phage grown in E. coli (BL21-derived)
T2 sequence (Q9BYT3 whole entry): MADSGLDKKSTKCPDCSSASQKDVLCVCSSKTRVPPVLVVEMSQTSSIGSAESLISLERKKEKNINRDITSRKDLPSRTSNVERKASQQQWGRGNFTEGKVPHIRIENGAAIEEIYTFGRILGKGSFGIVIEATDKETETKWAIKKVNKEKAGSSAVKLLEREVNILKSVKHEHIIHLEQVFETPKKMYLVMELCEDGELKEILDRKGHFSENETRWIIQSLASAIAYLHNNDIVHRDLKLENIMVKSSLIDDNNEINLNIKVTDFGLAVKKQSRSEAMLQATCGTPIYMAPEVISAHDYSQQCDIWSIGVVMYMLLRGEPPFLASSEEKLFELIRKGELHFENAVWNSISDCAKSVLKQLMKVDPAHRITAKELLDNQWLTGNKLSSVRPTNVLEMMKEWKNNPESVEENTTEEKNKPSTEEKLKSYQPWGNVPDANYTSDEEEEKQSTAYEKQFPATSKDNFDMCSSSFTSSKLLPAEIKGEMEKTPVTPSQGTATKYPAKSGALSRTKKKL
Protocol: as §1, §2

[3] = target: T3, TNNI3K (Homo sapiens, UniProt Q59H18)
T3 construct: host or cells: E. coli host derived from BL21, T7 phage
Protocol: as §1, §2

[4] = target: T4, TYRO3 (Homo sapiens, UniProt Q06418)
T4 construct: host or cells: E. coli host derived from BL21, T7 phage
Protocol: as §1, §2

[5] = target: T5, FLT3(N8411) (Homo sapiens, UniProt P36888, N841I)
T5 construct: host or cells: T7 phage in E. coli host derived from BL21
Protocol: as §1, §2

[6] = target: T6, ACVR1B (Homo sapiens, UniProt P36896)
T6 construct: host or cells: E. coli (BL21-derived), T7 phage lysate
Protocol: as §1, §2

[7] = target: T7, PKAC-alpha (Homo sapiens, UniProt P17612)
T7 construct: host or cells: T7 phage in E. coli host derived from BL21
Protocol: as §1, §2

[8] = target: T8, TGFBR1 (Homo sapiens, UniProt P36897)
T8 construct: host or cells: T7 phage grown in E. coli (BL21-derived)
Protocol: as §1, §2

[9] = target: T9, BMX (Homo sapiens, UniProt P51813)
T9 construct: host or cells: E. coli host derived from BL21
Protocol: as §1, §2

[10] = target: T10, PRKCQ (Homo sapiens, UniProt Q04759)
T10 construct: host or cells: T7 phage in E. coli host derived from BL21
Protocol: as §1, §2

[11] = target: T11, MYO3B (Homo sapiens, UniProt Q8WXR4)
T11 construct: host or cells: T7 phage grown in E. coli host derived from BL21
Protocol: as §1, §2

[12] = target: T12, CDKL2 (Homo sapiens, UniProt Q92772)
T12 construct: host or cells: T7 phage in E. coli host derived from BL21
T12 sequence (Q92772 whole entry): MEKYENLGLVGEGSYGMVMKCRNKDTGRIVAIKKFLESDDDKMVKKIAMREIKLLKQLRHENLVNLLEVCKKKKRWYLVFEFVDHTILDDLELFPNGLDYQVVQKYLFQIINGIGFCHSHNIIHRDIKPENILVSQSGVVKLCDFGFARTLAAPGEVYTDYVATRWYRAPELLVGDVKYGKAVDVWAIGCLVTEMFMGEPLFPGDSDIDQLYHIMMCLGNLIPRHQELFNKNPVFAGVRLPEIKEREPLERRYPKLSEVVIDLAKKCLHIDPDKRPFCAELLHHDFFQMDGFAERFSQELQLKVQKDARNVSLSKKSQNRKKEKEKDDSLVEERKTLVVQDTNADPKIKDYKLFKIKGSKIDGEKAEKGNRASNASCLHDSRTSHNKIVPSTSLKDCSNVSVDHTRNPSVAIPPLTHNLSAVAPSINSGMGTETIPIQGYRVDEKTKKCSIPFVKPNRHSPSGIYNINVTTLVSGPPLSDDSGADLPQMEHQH
Protocol: as §1, §2

[13] = target: T13, RET(M918T) (Homo sapiens, UniProt P07949, M918T)
T13 construct: host or cells: E. coli host derived from BL21, T7 phage display
T13 sequence (P07949 29-1114 M918T): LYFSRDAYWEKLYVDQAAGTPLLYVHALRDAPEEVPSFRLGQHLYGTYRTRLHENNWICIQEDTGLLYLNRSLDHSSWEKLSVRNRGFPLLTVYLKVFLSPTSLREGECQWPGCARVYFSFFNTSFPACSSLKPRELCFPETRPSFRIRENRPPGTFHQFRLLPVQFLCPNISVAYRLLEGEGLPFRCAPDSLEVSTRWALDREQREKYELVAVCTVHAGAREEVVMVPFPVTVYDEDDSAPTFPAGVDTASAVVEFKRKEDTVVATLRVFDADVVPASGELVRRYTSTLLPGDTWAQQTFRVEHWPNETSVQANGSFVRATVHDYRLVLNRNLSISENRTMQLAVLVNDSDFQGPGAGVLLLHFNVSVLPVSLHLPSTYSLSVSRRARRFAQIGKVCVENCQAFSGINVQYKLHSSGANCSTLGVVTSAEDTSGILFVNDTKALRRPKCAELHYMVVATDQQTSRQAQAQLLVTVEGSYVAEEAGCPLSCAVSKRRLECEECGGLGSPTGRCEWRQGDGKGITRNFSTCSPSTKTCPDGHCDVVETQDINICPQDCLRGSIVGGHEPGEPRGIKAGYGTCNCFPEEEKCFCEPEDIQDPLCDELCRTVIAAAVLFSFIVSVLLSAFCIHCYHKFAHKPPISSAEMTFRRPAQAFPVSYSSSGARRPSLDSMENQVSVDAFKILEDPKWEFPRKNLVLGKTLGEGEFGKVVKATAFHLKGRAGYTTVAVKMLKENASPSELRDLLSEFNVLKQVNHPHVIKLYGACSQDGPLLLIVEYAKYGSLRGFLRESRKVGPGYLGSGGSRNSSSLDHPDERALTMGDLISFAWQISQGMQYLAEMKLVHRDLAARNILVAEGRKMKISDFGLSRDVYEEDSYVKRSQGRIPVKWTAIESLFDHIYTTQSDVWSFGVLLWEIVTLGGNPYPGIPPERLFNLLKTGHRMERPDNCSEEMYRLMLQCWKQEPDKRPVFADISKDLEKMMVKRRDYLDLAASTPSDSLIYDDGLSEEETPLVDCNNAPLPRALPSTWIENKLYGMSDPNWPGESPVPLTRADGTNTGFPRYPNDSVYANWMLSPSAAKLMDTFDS
Protocol: as §1, §2

[14] = target: T14, SRPK3 (Homo sapiens, UniProt Q9UPE1)
T14 construct: host or cells: T7 phage grown in E. coli (BL21-derived)
Protocol: as §1, §2

[15] = target: T15, PRKD3 (Homo sapiens, UniProt O94806)
T15 construct: host or cells: T7 phage in E. coli host derived from BL21
Protocol: as §1, §2

[16] = target: T16, FLT3(D835Y) (Homo sapiens, UniProt P36888, D835Y)
T16 construct: host or cells: T7 phage in E. coli host derived from BL21
Protocol: as §1, §2

[17] = target: T17, PLK4 (Homo sapiens, UniProt O00444)
T17 construct: host or cells: T7 phage in E. coli host derived from BL21
T17 sequence (O00444 whole entry): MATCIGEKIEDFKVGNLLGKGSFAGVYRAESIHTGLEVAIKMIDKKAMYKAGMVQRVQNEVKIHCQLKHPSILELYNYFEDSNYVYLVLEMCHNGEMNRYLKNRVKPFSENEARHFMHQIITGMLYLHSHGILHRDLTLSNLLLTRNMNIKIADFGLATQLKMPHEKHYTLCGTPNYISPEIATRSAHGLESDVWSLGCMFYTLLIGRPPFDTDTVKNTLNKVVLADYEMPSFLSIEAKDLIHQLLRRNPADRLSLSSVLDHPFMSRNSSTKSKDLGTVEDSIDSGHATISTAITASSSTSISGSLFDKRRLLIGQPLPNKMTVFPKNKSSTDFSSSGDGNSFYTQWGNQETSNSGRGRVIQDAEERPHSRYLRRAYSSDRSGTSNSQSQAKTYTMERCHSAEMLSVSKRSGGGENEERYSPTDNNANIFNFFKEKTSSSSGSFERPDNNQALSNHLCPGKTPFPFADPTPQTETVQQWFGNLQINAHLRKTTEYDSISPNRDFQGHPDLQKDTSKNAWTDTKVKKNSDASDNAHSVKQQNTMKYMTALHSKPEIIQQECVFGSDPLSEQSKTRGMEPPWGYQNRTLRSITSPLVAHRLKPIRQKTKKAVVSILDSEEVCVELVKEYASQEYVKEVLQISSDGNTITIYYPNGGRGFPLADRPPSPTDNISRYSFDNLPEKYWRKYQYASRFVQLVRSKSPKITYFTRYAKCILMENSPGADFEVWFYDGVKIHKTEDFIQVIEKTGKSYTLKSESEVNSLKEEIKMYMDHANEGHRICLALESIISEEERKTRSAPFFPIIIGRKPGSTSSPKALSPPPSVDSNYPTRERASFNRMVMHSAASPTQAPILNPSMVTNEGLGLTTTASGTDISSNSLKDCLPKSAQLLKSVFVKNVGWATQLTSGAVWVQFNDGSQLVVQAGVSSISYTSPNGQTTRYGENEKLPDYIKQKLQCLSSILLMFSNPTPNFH
Protocol: as §1, §2

[18] = target: T18, ABL1(E255K) (Homo sapiens, UniProt P00519, E255K)
T18 construct: host or cells: E. coli (BL21-derived), T7 phage lysate
T18 sequence (P00519 whole entry E255K): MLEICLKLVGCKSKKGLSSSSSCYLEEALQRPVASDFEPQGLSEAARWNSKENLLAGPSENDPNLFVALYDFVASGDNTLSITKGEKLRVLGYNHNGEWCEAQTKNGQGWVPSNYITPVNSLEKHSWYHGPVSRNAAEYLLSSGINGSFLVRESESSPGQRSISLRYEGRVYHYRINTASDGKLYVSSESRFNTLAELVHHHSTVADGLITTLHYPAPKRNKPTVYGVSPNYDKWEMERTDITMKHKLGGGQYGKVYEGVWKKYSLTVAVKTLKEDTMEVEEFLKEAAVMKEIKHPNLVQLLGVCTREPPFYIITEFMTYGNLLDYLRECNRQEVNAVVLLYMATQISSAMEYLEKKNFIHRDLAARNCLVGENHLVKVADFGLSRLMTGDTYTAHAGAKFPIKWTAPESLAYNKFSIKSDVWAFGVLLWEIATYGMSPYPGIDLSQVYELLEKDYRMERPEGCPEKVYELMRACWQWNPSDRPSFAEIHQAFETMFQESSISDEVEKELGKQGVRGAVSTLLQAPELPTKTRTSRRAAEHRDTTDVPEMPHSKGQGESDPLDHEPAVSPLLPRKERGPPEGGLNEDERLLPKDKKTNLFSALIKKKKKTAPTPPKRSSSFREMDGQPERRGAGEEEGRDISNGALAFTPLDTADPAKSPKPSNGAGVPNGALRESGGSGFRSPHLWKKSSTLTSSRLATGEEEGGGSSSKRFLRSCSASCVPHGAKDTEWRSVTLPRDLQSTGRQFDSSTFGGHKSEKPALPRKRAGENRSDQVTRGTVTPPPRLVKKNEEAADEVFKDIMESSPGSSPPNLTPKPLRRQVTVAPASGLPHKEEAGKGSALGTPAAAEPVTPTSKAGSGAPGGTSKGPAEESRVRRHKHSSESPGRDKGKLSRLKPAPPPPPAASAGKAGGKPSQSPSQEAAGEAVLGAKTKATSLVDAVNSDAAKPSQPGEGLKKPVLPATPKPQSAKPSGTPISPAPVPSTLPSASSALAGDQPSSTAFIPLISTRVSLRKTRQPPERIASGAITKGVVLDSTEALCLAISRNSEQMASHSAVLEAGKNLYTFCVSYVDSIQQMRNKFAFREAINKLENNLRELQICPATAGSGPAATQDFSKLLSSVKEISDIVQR
Protocol: as §1, §2

[19] = target: T19, MLK1 (Homo sapiens, UniProt P80192)
T19 construct: host or cells: T7 phage grown in E. coli host derived from BL21
Protocol: as §1, §2

[20] = target: T20, TNK1 (Homo sapiens, UniProt Q13470)
T20 construct: host or cells: E. coli host derived from BL21, T7 phage
Protocol: as §1, §2

[21] = target: T21, CSNK2A1 (Homo sapiens, UniProt P68400)
T21 construct: purchased Ambit Biosciences Corp (KinomeScan); host or cells: T7 phage in E. coli host derived from BL21
Protocol: as §1, §2

[22] = target: T22, AMPK-alpha1 (Homo sapiens, UniProt Q13131)
T22 construct: host or cells: E. coli (BL21-derived), T7 phage lysate
Protocol: as §1, §2

[23] = target: T23, CAMK1D (Homo sapiens, UniProt Q8IU85)
T23 construct: host or cells: E. coli host derived from BL21
Protocol: as §1, §2

[24] = target: T24, RPS6KA5(Kin.Dom.-1-N-terminal) (Homo sapiens, UniProt O75582)
T24 construct: RPS6KA5(Kin.Dom.-1-N-terminal); host or cells: E. coli host derived from BL21, T7 phage display
T24 sequence (O75582 49-318 limits assumed): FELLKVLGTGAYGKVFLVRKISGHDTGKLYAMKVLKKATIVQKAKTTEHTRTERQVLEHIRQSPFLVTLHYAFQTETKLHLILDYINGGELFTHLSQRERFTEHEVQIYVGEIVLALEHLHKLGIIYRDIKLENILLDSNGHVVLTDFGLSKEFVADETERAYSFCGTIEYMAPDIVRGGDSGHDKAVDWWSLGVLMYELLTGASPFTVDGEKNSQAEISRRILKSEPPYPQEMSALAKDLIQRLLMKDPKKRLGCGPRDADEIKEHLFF
Protocol: as §1, §2

[25] = target: T25, TTK (Homo sapiens, UniProt P33981)
T25 construct: host or cells: E. coli host derived from BL21, T7 phage
Protocol: as §1, §2

[26] = target: T26, MYLK2 (Homo sapiens, UniProt Q9H1R3)
T26 construct: host or cells: T7 phage grown in E. coli host derived from BL21
T26 sequence (Q9H1R3 whole entry): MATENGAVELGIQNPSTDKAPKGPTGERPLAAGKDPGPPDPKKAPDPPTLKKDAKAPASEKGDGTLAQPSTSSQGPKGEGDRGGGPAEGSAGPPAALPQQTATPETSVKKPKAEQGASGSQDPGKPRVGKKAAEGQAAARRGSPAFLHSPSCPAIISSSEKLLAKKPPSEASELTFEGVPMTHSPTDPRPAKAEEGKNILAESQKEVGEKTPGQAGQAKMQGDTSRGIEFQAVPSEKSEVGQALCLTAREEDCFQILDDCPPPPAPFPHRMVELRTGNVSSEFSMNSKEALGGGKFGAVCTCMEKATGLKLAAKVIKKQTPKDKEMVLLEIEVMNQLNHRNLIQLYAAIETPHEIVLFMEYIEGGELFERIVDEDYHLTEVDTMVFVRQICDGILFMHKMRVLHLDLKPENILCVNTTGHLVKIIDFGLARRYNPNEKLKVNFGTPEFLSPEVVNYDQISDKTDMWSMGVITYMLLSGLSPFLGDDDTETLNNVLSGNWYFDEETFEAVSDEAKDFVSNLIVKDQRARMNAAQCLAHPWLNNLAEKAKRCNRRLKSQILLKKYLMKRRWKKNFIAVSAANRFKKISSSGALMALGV
Protocol: as §1, §2

[27] = target: T27, CDC2L2 (Homo sapiens, UniProt Q9UQ88)
T27 construct: host or cells: T7 phage in E. coli host derived from BL21
Protocol: as §1, §2

[28] = target: T28, KIT(V559D, V654A) (Homo sapiens, UniProt P10721, V559D/V654A)
T28 construct: host or cells: T7 phage grown in E. coli host derived from BL21
Protocol: as §1, §2

[29] = target: T29, TEC (Homo sapiens, UniProt P42680)
T29 construct: host or cells: T7 phage grown in E. coli (BL21-derived)
Protocol: as §1, §2

[30] = target: T30, CAMKK2 (Homo sapiens, UniProt Q96RR4)
T30 construct: host or cells: T7 phage in E. coli host derived from BL21
Protocol: as §1, §2

[31] = target: T31, PAK7 (Homo sapiens, UniProt Q9P286)
T31 construct: host or cells: E. coli host derived from BL21, infected with T7 phage
Protocol: as §1, §2

[32] = target: T32, EGFR(L747-E749del, A750P) (Homo sapiens, UniProt P00533, A750P/DEL747-749)
T32 construct: purchased Ambit Biosciences Corp (KinomeScan); host or cells: T7 phage in E. coli host derived from BL21
Protocol: as §1, §2

[33] = target: T33, MKNK1 (Homo sapiens, UniProt Q9BUB5)
T33 construct: host or cells: T7 phage grown in E. coli host derived from BL21
Protocol: as §1, §2

C#Cc1cccc(Nc2ncnc3cc(OC)c(OCCCN4CCOCC4)cc23)c1 [NRC-2694, N-(3-ethynylphenyl)-7-methoxy-6-[3-(4-morpholinyl)propoxy]-4-quinazolinamine]
remaining binding at 10 µM [1]: 64%
remaining binding at 10 µM [2]: 43%
remaining binding at 10 µM [3]: 7.6%
remaining binding at 10 µM [4]: 42%
remaining binding at 10 µM [5]: 16%
remaining binding at 10 µM [6]: 63%
remaining binding at 10 µM [7]: 100%
remaining binding at 10 µM [8]: 83%
remaining binding at 10 µM [9]: 73%
remaining binding at 10 µM [10]: 83%
remaining binding at 10 µM [11]: 100%
remaining binding at 10 µM [12]: 67%
remaining binding at 10 µM [13]: 37%
remaining binding at 10 µM [14]: 38%
remaining binding at 10 µM [15]: 7.2%
remaining binding at 10 µM [16]: 9.4%
remaining binding at 10 µM [17]: 70%
remaining binding at 10 µM [18]: 80%
remaining binding at 10 µM [19]: 100%
remaining binding at 10 µM [20]: 41%
remaining binding at 10 µM [21]: 56%
remaining binding at 10 µM [22]: 50%
remaining binding at 10 µM [23]: 83%
remaining binding at 10 µM [24]: 85%
remaining binding at 10 µM [25]: 48%
remaining binding at 10 µM [26]: 4.8%
remaining binding at 10 µM [27]: 37%
remaining binding at 10 µM [28]: 47%
remaining binding at 10 µM [29]: 90%
remaining binding at 10 µM [30]: 60%
remaining binding at 10 µM [31]: 63%
remaining binding at 10 µM [32]: 0%
remaining binding at 10 µM [33]: 1.2%
